In patent US9993494B2, “Compositions and methods for treating fibrotic disease” (eFFECTOR Therapeutics, Inc., priority 2014, dated 2018):

Tested on: normal human lung fibroblasts
Assay: Ribosomal profiling: translational efficiency in TGFβ-treated fibroblasts
Assay type: cell-based
Settings: TGFβ-treated fibroblasts
Procedure: Ribosomal profiling allows for measurement of changes in transcription and translation on a genome-wide basis accompanying TGFβ-dependent transformation of fibroblasts to myofibroblasts. Ribosomal profiles of the TGFβ-treated fibroblasts from Example 1 (about 6×10^6 cells/10 cm plate) were prepared and analyzed for changes in translational efficiencies with respect to potential disease-associated cellular changes accompanying this TGFβ-induced transformation.
Briefly, cells were washed with cold PBS supplemented with cycloheximide and lysed with 1× mammalian cell lysis buffer for 10 minutes on ice. Lysates were clarified by centrifugation for 10 minutes at 14,000 rpm and supernatants were collected. Cell lysates were processed to generate ribosomal protected fragments and total mRNA according to the instructions included with the ARTseq Ribosome Profiling Kit (Illumina, San Diego, Calif.). Sequencing of total RNA (RNA) and of ribosome-protected fragments of RNA (RPF) was carried out using RNA-Seq methodology according to the manufacturer's instructions (Illumina). To analyze the ribosomal profiles, RNA-Seq reads were processed with tools from the FASTX-Toolkit (fastq_quality_trimmer, fastx_clipper and fastx_trimmer). Unprocessed and processed reads were evaluated for a variety of quality measures using FastQC, and processed reads were mapped to the human genome using TopHat (see, e.g., Trapnell et al., Bioinformatics 25:1105, 2009). Gene-by-gene assessment of the number of fragments strictly and uniquely mapping to the coding region of each gene was conducted using HTSeq-count, a component of the HTSeq package. […] Genes with low counts in either RPF or RNA were excluded from differential analyses. Pathway and network analyses of differential data were conducted using Ingenuity Pathway Analysis (IPA).

Measured: effect in renormalizing the translational profile of the gene

CC(C)n1nc(-c2cc3cc(O)ccc3[nH]2)c2c(N)ncnc21 [PP242]
+ (+ = 0.9 to 1.5): gene RPS6KA5 (ENSG00000100784) | gene RPS15 (ENSG00000115268) | gene RPS15A (ENSG00000134419) | gene RPS18 (ENSG00000231500) | gene RPS28 (ENSG00000233927) | gene RPS29 (ENSG00000213741) | gene SPATA6 (ENSG00000132122) | gene THBS3 (ENSG00000169231)
− (− = <0.9): gene RPS7 (ENSG00000171863) | gene RPS8 (ENSG00000142937) | gene RPS9 (ENSG00000170889) | gene RPS10 (ENSG00000124614) | gene RPS11 (ENSG00000142534) | gene RPS12 (ENSG00000112306) | gene RPS13 (ENSG00000110700) | gene RPS14 (ENSG00000164587) | gene RPS16 (ENSG00000105193) | gene RPS19 (ENSG00000105372) | gene RPS20 (ENSG00000008988) | gene RPS21 (ENSG00000171858) | gene RPS23 (ENSG00000186468) | gene RPS24 (ENSG00000138326) | gene RPS25 (ENSG00000118181) | gene RPS26 (ENSG00000197728) | gene RPS27 (ENSG00000177954) | gene RPS27A (ENSG00000143947) | gene RPSA (ENSG00000168028) | gene RTN2 (ENSG00000125744) | gene SEMA3A (ENSG00000075213) | gene SGIP1 (ENSG00000118473) | gene SH3BGR (ENSG00000185437) | gene SHC3 (ENSG00000148082) | gene SLC2A12 (ENSG00000146411) | gene SLC7A7 (ENSG00000155465) | gene SLC15A3 (ENSG00000110446) | gene SLC25A6 (ENSG00000169100) | gene SLC40A1 (ENSG00000138449) | gene SMO (ENSG00000128602) | gene SNRPA (ENSG00000077312) | gene SOX5 (ENSG00000134532) | gene SOX6 (ENSG00000110693) | gene STAMBPL1 (ENSG00000138134) | gene STS (ENSG00000101846) | gene SYNE2 (ENSG00000054654) | gene TAF1D (ENSG00000166012) | gene TDG (ENSG00000139372) | gene TEN1 (ENSG00000257949) | gene TET2 (ENSG00000168769) | gene TET3 (ENSG00000187605) | gene TGFBI (ENSG00000120708) | gene THG1L (ENSG00000113272) | gene TIMM9 (ENSG00000100575) | gene TKT (ENSG00000163931) | gene TMTC1 (ENSG00000133687) | gene TOMM7 (ENSG00000196683) | gene TOP2A (ENSG00000131747) | gene TPGS1 (ENSG00000141933) | gene TPM2 (ENSG00000198467) | gene TPT1 (ENSG00000133112) | gene TRERF1 (ENSG00000124496) | gene UBA52 (ENSG00000221983) | gene UQCRB (ENSG00000156467) | gene UTRN (ENSG00000152818) | gene VIM (ENSG00000026025) | gene ZNF581 (ENSG00000171425) | gene ZNF608 (ENSG00000168916)
